According to patent US20030153618A1, “Treatment and prevention of herpes simplex infections” (priority 1999, published 2003):

Test system: Herpes simplex II virus
Test: Back titration plaque assay: PFU counts at stated amounts of compound under test and arginine
Type: cell-based, Herpes simplex II virus (BSC cells)
Description: The following experiments were conducted by back titration: Herpes simplex II virus from laboratory stocks was used. BSC cells were grown to confluence in Eagles medium with 15% fetal calf serum, 150 units per milliliter of penicillin and 100 micrograms per milliliter of streptomycin. The cultures were inoculated with 500 PFU of HS II. The virons were allowed to absorb for one hour at 25° C. The tissue cultures were then washed three times with sterile PBS to remove excess media and non-absorbed virons. The cells were then incubated at 37° C. until four-plus cytopathic effects were observed. The cells were then disrupted by slow freeze-thaw two times. The suspension was then clarified by slow speed centrifugation at 4° C. The supemanant suspension was then added to confluent BSC cultures. After one hour absorption, the cells were washed with PBS twice. The cells were overlaid in defined reagent (in triplicate) Eagles media in noble agar. The cells were then incubated at 37° C. until the plaques were easily counted, usually 40 t 72 hours. the cells were then washed two times with PBS and then fixed with 10% H2CO and a 2% sodium acetate. The cells were then stained in 0.1% crystal violet in ethanol. In the tables which follow the concentration of the compound to be tested, in micrograms per milliliter, is listed across the top of the table and the concentration of arginine in micrograms per milliliter is listed down the left side of the table, the count of plaque-forming units being shown in the matrix.

[1] = compound 10 μg/ml, arginine 0 μg/ml
[2] = compound 10 μg/ml, arginine 2.5 μg/ml
[3] = compound 10 μg/ml, arginine 5.0 μg/ml
[4] = compound 10 μg/ml, arginine 7.5 μg/ml
[5] = compound 10 μg/ml, arginine 10 μg/ml
[6] = compound 10 μg/ml, arginine 15 μg/ml
[7] = compound 10 μg/ml, arginine 20 μg/ml
[8] = compound 10 μg/ml, arginine 25 μg/ml
[9] = compound 25 μg/ml, arginine 0 μg/ml
[10] = compound 25 μg/ml, arginine 2.5 μg/ml
[11] = compound 25 μg/ml, arginine 5.0 μg/ml
[12] = compound 25 μg/ml, arginine 7.5 μg/ml
[13] = compound 25 μg/ml, arginine 10 μg/ml
[14] = compound 25 μg/ml, arginine 15 μg/ml
[15] = compound 25 μg/ml, arginine 20 μg/ml
[16] = compound 25 μg/ml, arginine 25 μg/ml
[17] = compound 50 μg/ml, arginine 0 μg/ml
[18] = compound 50 μg/ml, arginine 2.5 μg/ml
[19] = compound 50 μg/ml, arginine 5.0 μg/ml
[20] = compound 50 μg/ml, arginine 7.5 μg/ml
[21] = compound 50 μg/ml, arginine 10 μg/ml
[22] = compound 50 μg/ml, arginine 15 μg/ml
[23] = compound 50 μg/ml, arginine 20 μg/ml
[24] = compound 50 μg/ml, arginine 25 μg/ml
[25] = compound 100 μg/ml, arginine 0 μg/ml
[26] = compound 100 μg/ml, arginine 2.5 μg/ml
[27] = compound 100 μg/ml, arginine 5.0 μg/ml
[28] = compound 100 μg/ml, arginine 7.5 μg/ml
[29] = compound 100 μg/ml, arginine 10 μg/ml
[30] = compound 100 μg/ml, arginine 15 μg/ml
[31] = compound 100 μg/ml, arginine 20 μg/ml
[32] = compound 100 μg/ml, arginine 25 μg/ml
[33] = compound 200 μg/ml, arginine 0 μg/ml
[34] = compound 200 μg/ml, arginine 2.5 μg/ml
[35] = compound 200 μg/ml, arginine 5.0 μg/ml
[36] = compound 200 μg/ml, arginine 7.5 μg/ml
[37] = compound 200 μg/ml, arginine 10 μg/ml
[38] = compound 200 μg/ml, arginine 15 μg/ml
[39] = compound 200 μg/ml, arginine 20 μg/ml
[40] = compound 200 μg/ml, arginine 25 μg/ml
[41] = compound 300 μg/ml, arginine 0 μg/ml
[42] = compound 300 μg/ml, arginine 2.5 μg/ml
[43] = compound 300 μg/ml, arginine 5.0 μg/ml
[44] = compound 300 μg/ml, arginine 7.5 μg/ml
[45] = compound 300 μg/ml, arginine 10 μg/ml
[46] = compound 300 μg/ml, arginine 15 μg/ml
[47] = compound 300 μg/ml, arginine 20 μg/ml
[48] = compound 300 μg/ml, arginine 25 μg/ml
[49] = compound 400 μg/ml, arginine 0 μg/ml
[50] = compound 400 μg/ml, arginine 2.5 μg/ml
[51] = compound 400 μg/ml, arginine 5.0 μg/ml
[52] = compound 400 μg/ml, arginine 7.5 μg/ml
[53] = compound 400 μg/ml, arginine 10 μg/ml
[54] = compound 400 μg/ml, arginine 15 μg/ml
[55] = compound 400 μg/ml, arginine 20 μg/ml
[56] = compound 400 μg/ml, arginine 25 μg/ml
[57] = compound 500 μg/ml, arginine 0 μg/ml
[58] = compound 500 μg/ml, arginine 2.5 μg/ml
[59] = compound 500 μg/ml, arginine 5.0 μg/ml
[60] = compound 500 μg/ml, arginine 7.5 μg/ml
[61] = compound 500 μg/ml, arginine 10 μg/ml
[62] = compound 500 μg/ml, arginine 15 μg/ml
[63] = compound 500 μg/ml, arginine 20 μg/ml
[64] = compound 500 μg/ml, arginine 25 μg/ml

NCCCCCC(N)C(=O)O (centres unmarked) [drawing 17]
P.F.U. Count [1]: 0
P.F.U. Count [2]: 0
P.F.U. Count [3]: 0
P.F.U. Count [4]: 0
P.F.U. Count [5]: 290
P.F.U. Count [6]: 799
P.F.U. Count [7]: 2.8 × 10^5
P.F.U. Count [8]: 2.8 × 10^5
P.F.U. Count [9]: 0
P.F.U. Count [10]: 0
P.F.U. Count [11]: 0
P.F.U. Count [12]: 0
P.F.U. Count [13]: 3.7 × 10^3
P.F.U. Count [14]: 4.2 × 10^3
P.F.U. Count [15]: 2.6 × 10^5
P.F.U. Count [16]: 4 × 10^5
P.F.U. Count [17]: 0
P.F.U. Count [18]: 0
P.F.U. Count [19]: 0
P.F.U. Count [20]: 0
P.F.U. Count [21]: 79
P.F.U. Count [22]: 276
P.F.U. Count [23]: 6.6 × 10^4
P.F.U. Count [24]: 3.6 × 10^4
P.F.U. Count [25]: 0
P.F.U. Count [26]: 0
P.F.U. Count [27]: 0
P.F.U. Count [28]: 0
P.F.U. Count [29]: 0
P.F.U. Count [30]: 0
P.F.U. Count [31]: 3.2 × 10^3
P.F.U. Count [32]: 6.6 × 10^3
P.F.U. Count [33]: 0
P.F.U. Count [34]: 0
P.F.U. Count [35]: 0
P.F.U. Count [36]: 0
P.F.U. Count [37]: 0
P.F.U. Count [38]: 0
P.F.U. Count [39]: 68
P.F.U. Count [40]: 654
P.F.U. Count [41]: 0
P.F.U. Count [42]: 0
P.F.U. Count [43]: 0
P.F.U. Count [44]: 0
P.F.U. Count [45]: 0
P.F.U. Count [46]: 0
P.F.U. Count [47]: 0
P.F.U. Count [48]: 0
P.F.U. Count [49]: 0
P.F.U. Count [50]: 0
P.F.U. Count [51]: 0
P.F.U. Count [52]: 0
P.F.U. Count [53]: 0
P.F.U. Count [54]: 0
P.F.U. Count [55]: 0
P.F.U. Count [56]: 0
P.F.U. Count [57]: 0
P.F.U. Count [58]: 0
P.F.U. Count [59]: 0
P.F.U. Count [60]: 0
P.F.U. Count [61]: 0
P.F.U. Count [62]: 0
P.F.U. Count [63]: 0
P.F.U. Count [64]: 0

CC(N)CCCCC(N)C(=O)O (centres unmarked) [drawing 18]
P.F.U. Count [1]: 0
P.F.U. Count [2]: 0
P.F.U. Count [3]: 0
P.F.U. Count [4]: 0
P.F.U. Count [5]: 610
P.F.U. Count [6]: 46
P.F.U. Count [7]: 2.1 × 10^5
P.F.U. Count [8]: 2.8 × 10^5
P.F.U. Count [9]: 0
P.F.U. Count [10]: 0
P.F.U. Count [11]: 0
P.F.U. Count [12]: 0
P.F.U. Count [13]: 3.7 × 10^3
P.F.U. Count [14]: 4.2 × 10^3
P.F.U. Count [15]: 2.0 × 10^5
P.F.U. Count [16]: 2.1 × 10^5
P.F.U. Count [17]: 0
P.F.U. Count [18]: 0
P.F.U. Count [19]: 0
P.F.U. Count [20]: 0
P.F.U. Count [21]: 79
P.F.U. Count [22]: 276
P.F.U. Count [23]: 1.6 × 10^4
P.F.U. Count [24]: 1.1 × 10^4
P.F.U. Count [25]: 0
P.F.U. Count [26]: 0
P.F.U. Count [27]: 0
P.F.U. Count [28]: 0
P.F.U. Count [29]: 0
P.F.U. Count [30]: 0
P.F.U. Count [31]: 1.0 × 10^3
P.F.U. Count [32]: 1.6 × 10^3
P.F.U. Count [33]: 0
P.F.U. Count [34]: 0
P.F.U. Count [35]: 0
P.F.U. Count [36]: 0
P.F.U. Count [37]: 0
P.F.U. Count [38]: 0
P.F.U. Count [39]: 760
P.F.U. Count [40]: 1.7 × 10^3
P.F.U. Count [41]: 0
P.F.U. Count [42]: 0
P.F.U. Count [43]: 0
P.F.U. Count [44]: 0
P.F.U. Count [45]: 0
P.F.U. Count [46]: 0
P.F.U. Count [47]: 163
P.F.U. Count [48]: 1.0 × 10^3
P.F.U. Count [49]: 0
P.F.U. Count [50]: 0
P.F.U. Count [51]: 0
P.F.U. Count [52]: 0
P.F.U. Count [53]: 0
P.F.U. Count [54]: 179
P.F.U. Count [55]: 310
P.F.U. Count [56]: 140
P.F.U. Count [57]: 0
P.F.U. Count [58]: 0
P.F.U. Count [59]: 0
P.F.U. Count [60]: 0
P.F.U. Count [61]: 0
P.F.U. Count [62]: 0
P.F.U. Count [63]: 0
P.F.U. Count [64]: 0
